# Assay results reported in patent US20070274947A1, “Antisense Oligonucleotides Directed to Ribonucleotide Reductase R1 and Uses Thereof in the Treatment of Cancer” (priority 2003, published 2007).
# “Also recorded” adds a separate entry of the source.
# How the values were obtained:
# R1 protein = assay: Immunoprecipitation of newly synthesized R1 protein in AsPC-1 cells; format: cell-based, human; settings: 0.2 μM, 4 hours
# Method: Immunoprecipitation was performed using a saturating amount of AD203 anti-R1 monoclonal antibody as previously described (Choy et al., 1988). Human tumor cells, AsPC-1 (pancreatic adenocarcinoma), were exposed for 4 hours to SEQ ID NO:1, SEQ ID NO:1 M is (a SEQ ID NO:1 sequence containing four base mismatch) or SEQ ID NO:1 Scr (a sequence with the same ratio of ACTG as the SEQ ID NO:1 sequence but scrambled). Cells were then washed and labeled with ^35S-methionine for 4-7 hours. R1 protein was specifically immunoprecipitated with R1 antibody from cell lysate, resolved on sodium dodecyl sulfate-polyacrylamide gels and analyzed by autoradiography.
# [1] = Acute intravenous toxicity study in rats (24-hour infusion); format: in vivo, Sprague-Dawley rats; settings: rat
# Text: The purpose of this study was to assess the adverse effects of SEQ ID NO:1 when administered as a single intravenous dose to Sprague-Dawley rats. […] Parameters assessed included mortality, clinical observations, body weight and food consumption assessment, clinical pathology and urinalysis measurements, and gross examination at necropsy.
# [2] = test system: human Burkitt's lymphoma (Raji) cells; assay: Survival of SCID mice bearing human Burkitt's lymphoma (Raji); format: in vivo
# Method: In vivo studies were conducted to assess the therapeutic potential of SEQ ID NO:1 in the treatment of lymphoma. Viable human Burkitt's lymphoma (Raji) cells (5×10^6) collected from subconfluent logarithmically growing cultures were injected i.v. via the tail vein of each animal and disease was allowed to establish for 2 days. SEQ ID NO:1 in normal saline was administered by tail vein injections every second day at a dose of 10 mg/kg. Control animals received saline alone, without oligonucleotide. Treatment with SEQ ID NO:1 was stopped at day 42. The mice in both groups (n−10) were sacrificed at, day 73. Antitumor effects of SEQ ID NO:1 treatment were assessed by the examination of survival of mice (FIG. 18A). All mice died as a consequence of tumor progression within 23 days when left untreated. All SEQ ID NO:1 treated animals, on the other hand, survived beyond day 73 except one mouse which died at day 35. In an independent experiment, mice survived 140 days, even when treatment was stopped at day 70 (FIG. 18B). This experiment also included treatment with a control oligonucleotide, SEQ ID NO:1-SCR (scrambled version of SEQ ID NO:1). The saline and control ODN mice all died from disease progression by day 27. At day 40, the SEQ ID NO:1-treated mice continued treatment every three days until stopping the treatment at day 59. All mice survived to the end of the experimental period.
# [3] = test system: DU145 human prostatic cancer cells; assay: DU145 prostate tumor growth in SCID mice; format: in vivo
# Method: DU145 human prostatic cancer cells (1×10^7 cells in 100 μl of PBS) were subcutaneously injected into the right flank of 6-7 week old male SCID mice. After the size of the tumors reached an approximate volume of 50 mm^3, 13 days post tumor cell injection, SEQ ID NO:1 was administered by bolus infusion into the tail vein every other day at 10 mg/kg. Control animals received saline alone for the same period. Treatments lasted for 30 days thereafter. Antitumor activities were estimated by the inhibition of tumor volume, which was measured with a caliper on nine different occasions over 30-day period. Each point represents mean tumor volume calculated from 5 animals per experimental group.
# In both experiments, DU145 human prostatic cancer cells (1×10^7 cells in 100 μl of PBS) were subcutaneously injected into the right flank of 6-7 weeks old male SCID mice. After the size of tumor reached an approximate volume of 50 mm^3, 13 (upper panel) or 11 (lower panel) days post tumor cell injection, SEQ ID NO:1 was administered by bolus infusion into the tail vein every other day at 10 mg/kg 15 times (upper panel) or 14 times (lower panel), respectively. Control animals received saline alone for the same period. Antitumor effect of SEQ ID NO:1 was further compared to that of mitoxantrone (novantrone®) alone or in combination. Mitoxantrone was administered intravenously once at the beginning of the treatments at a dose of 2 mg/kg (upper panel) or once a week for four weeks at a reduced dose of 0.8 mg/kg (lower panel). All treatments were stopped at day 42 (upper panel) or 38 (lower panel), respectively. A day after the last treatment, tumors were excised from the animals and their weights were measured.
# [4] = cynomolgus monkey, in vivo
# R1 mRNA = R1 mRNA levels in HT-29 colon tumors in nude mice (Northern blot); format: in vivo, human; settings: day 16, 10 mg/kg every other day, two independent HT-29 tumors
# Method: Effects of SEQ ID NO:1 administration on R1 mRNA levels in HT-29 colon tumors in nude mice were investigated.
# For determination of mRNA levels in tumors by Northern Blot, total RNA was prepared from excised tumors using TRIzol reagent (GIBCO BRL). Northern blot analysis was performed as previously described (Hurta and Wright, 1995). RNA was subjected to electrophoresis through 1% formaldehyde agarose gels followed by transfer to nylon membranes. Blots were hybridized in the presence of a R1 fragment (McClarty et al, 1987). Glyceraldehyde-3-phosphate dehydrogenase (GAPDH) mRNA levels were simultaneously probed for RNA loading controls.
# The results provide strong evidence that SEQ ID NO:1 is reaching the tumor site in vivo and is acting by an antisense mechanism of action.
# human tumors = assay: In vivo primary pharmacology, human tumors in mouse models
# [5] = 14-day continuous intravenous infusion toxicity study in the rat; format: in vivo, Sprague Dawley rats
# Hep G2 (liver) = assay: Colony forming ability, Hep G2; format: cell-based, human; settings: 0.2 μM antisense oligonucleotide/lipofectin, 4 hours
# Method: The effect of SEQ ID NO:1 on the colony forming ability were evaluated in the following human tumor cell lines:
# Tumor cells were washed in 5 ml of phosphate buffered saline, pH 7.2, prior to 0.2 μM antisense oligonucleotide/lipofectin treatment for 4 hours. The medium was removed and the cells were gently washed with 5 ml of growth medium. The cells were then cultured in growth medium for seven to ten days. Surviving colonies were visualized by methylene blue staining and colonies of 50 or more cells were scored (Choy et al., 1988 and Huang and Wright, 1994). Results are summarized from 4 to 8 trials for each tumor cell line.
substance,measurement,setting,value
5′-CTCTAGCGTCTTAAAGCCGA-3′ (CTCTAGCGTCTTAAAGCCGA; chemistry not given here) [SEQ ID NO:1],R1 protein expression (synthesis),R1 protein,specifically decreases R1 protein expression; also recorded: dramatically decreased; also recorded: specifically inhibit the expression of R1 protein
same,toxicological effects,"[1]; 24-hour continuous i.v. infusion, 40 mg/kg/day",toxicological effects were not observed
same,test article related effects,"[1]; 24-hour continuous i.v. infusion, 60, 80 and 90 mg/kg",some test article related effects were found
same,survival of mice,"[2]; FIG. 18A, 10 mg/kg i.v. every second day, stopped at day 42, one mouse died at day 35, untreated died within 23 days",> 73 days
same,survival of mice,"[2]; independent experiment FIG. 18B, saline mice died by day 27",≥ 140 days
same,inhibition of tumor volume,"[3]; SCID mice, 10 mg/kg i.v. every other day, 30 days, vs saline, 10 mg/kg",strong inhibitory effects
same,tumor weight / tumor growth,"[3]; upper panel FIG. 2, SEQ ID NO:1 10 mg/kg every other day 15 times, mitoxantrone 2 mg/kg i.v. once, vs saline",significant delay of tumor growth
same,delay in tumor growth compared with mitoxantrone alone,"[3]; upper panel FIG. 2, mitoxantrone 2 mg/kg once",superior to the inhibitory effects observed with mitoxantrone alone
same,clinical parameters in mid and low dose animals,[4],Transient changes
same,complement split product Bb,[4],appeared to increase
same,activated partial thromboplastin time (APTT),[4]; 40 mg/kg/day,reversible increase
same,R1 mRNA levels in tumors,R1 mRNA,marked reduction; also recorded: decreased R1 mRNA levels
same,efficacy in tumor xenograft experiments,human tumors; SCID mice that are T and B cell deficient,highly effective
same,growth of human tumors in mouse models,human tumors; doses of 1.0 to 10 mg/kg/day,significantly inhibited the growth
same,sex effect on adverse effects,[5],more pronounced in males than females
same,treatment-related effects in the high dose group,"[5]; 50 mg/kg/day (reduced to 40 mg/kg/day), 14-day infusion","severe adverse clinical signs and mortality; also recorded: high morbidity and mortality, reduced body weights and reduced food consumption"
same,clinical pathology results,"[5]; 2, 10, 50 mg/kg/day, 14 days","dose-dependent anemia, thrombocytopenia, coagulopathic selectivity for APTT, and liver and kidney toxicity in both sexes"
same,pathological findings,"[5]; 2, 10, 50 mg/kg/day, 14 days","major treatment-related changes in numerous tissues and organs of the high dose animals, in most tissues and organs of the mid dose animals; and sporadically in the evaluated tissues and organs of the low dose animals"
same,toxicity,[5]; continuously for 14 days at 10 mg/kg/day (59 mg/m^2/day),Severe toxicity
same,inhibition in colony forming ability,Hep G2 (liver),greater than 60%
